Source: EP0004590A1, “Penicillin and cephalosporin derivatives, processes for their preparation and their applications” (BAYER AG, priority 1978, dated 1979)

What was measured:
[1] = tested on: Provid. 12012; test: Minimum inhibitory concentration (MHK); type: cell-based
[2] = tested on: Proteus rettg.; test: Minimum inhibitory concentration (MHK); type: cell-based
[3] = tested on: E. coli Neumann; test: Minimum inhibitory concentration (MHK); type: cell-based
[4] = tested on: Klebsiella 6097; test: Minimum inhibitory concentration (MHK); type: cell-based
[5] = tested on: Escherichia coli Neumann; test: Animal test with the white mouse, intraperitoneal infection, ED50 after 24 hours; type: in vivo, weiße Maus; conditions: sc; white mice strain CF1 infected intraperitoneally with Escherichia coli Neumann; subcutaneous; therapy 30 and 90 minutes after infection; dose at which 50 % of infected animals survive after 24 hours; read-out: ED50 nach 24 Stunden
Excerpt: Aus der folgenden Tabelle 1 geht die Wirkung einer der erfindungsgemäßen Verbindungen gegen eine Reihe von Bakterien im Tierversuch mit der weißen Maus hervor. Die weißen Mäuse vom Stamm CF1 wurden intraperitoneal mit der jeweils angegebenen Bakterienart infiziert.
Therapie: zweimalig : 30 und 90 Minuten nach der Infektion. Die ED50 ist die Dosis, bei der 50 % der infizierten Tiere nach 24 Stunden nocht überleben.

[6] = tested on: Klebs. 63; test: Minimum inhibitory concentration (MHK); type: cell-based
[7] = tested on: Serratia 16 001; test: Minimum inhibitory concentration (MHK); type: cell-based
[8] = tested on: Prot. vulg. 9023; test: Minimum inhibitory concentration (MHK); type: cell-based
[9] = tested on: E. coli C 165; test: Minimum inhibitory concentration (MHK); type: cell-based
[10] = tested on: E. coli 4322; test: Minimum inhibitory concentration (MHK); type: cell-based
[11] = tested on: Psdm. F 41; test: Minimum inhibitory concentration (MHK); type: cell-based
[12] = tested on: E.coli 183/58; test: Minimum inhibitory concentration (MHK); type: cell-based

CCN1C(=O)CCN(C(=O)N[C@@H](C(=O)N[C@@H]2C(=O)N3[C@@H]2SC(C)(C)[C@@H]3C(=O)O)c2ccccc2)C1=O [Beispiel 4]
Wirksamkeit (MHK in E/ml) [1]: 16 E/ml | Wirksamkeit (MHK in E/ml) [2]: 16 E/ml | Wirksamkeit (MHK in E/ml) [3]: 4 E/ml | Wirksamkeit (MHK in E/ml) [4]: 16 E/ml

CC1(C)S[C@@H]2[C@H](NC(=O)[C@H](NC(=O)N3CCC(=O)N(C4CC4)C3=O)c3ccccc3)C(=O)N2[C@H]1C(=O)O [Beispiel 9]
ED50 [5]: 300 mg/kg | Wirksamkeit (MHK in E/ml) [3]: 4 E/ml | Wirksamkeit (MHK in E/ml) [6]: 8 - 16 E/ml | Wirksamkeit (MHK in E/ml) [7]: 16 E/ml

CCN1C(=O)CCN(C(=O)N[C@@H](C(=O)N[C@@H]2C(=O)N3[C@@H]2SC(C)(C)[C@@H]3C(=O)O)c2ccc(O)cc2)C1=O [Beispiel 5]
Wirksamkeit (MHK in E/ml) [8]: 16 E/ml | Wirksamkeit (MHK in E/ml) [9]: 16 E/ml

CCCN1C(=O)CCN(C(=O)N[C@@H](C(=O)N[C@@H]2C(=O)N3C(C(=O)O)=C(COC(C)=O)CS[C@H]23)c2ccccc2)C1=O [Beispiel 8]
Wirksamkeit (MHK in E/ml) [8]: 8 - 16 E/ml | Wirksamkeit (MHK in E/ml) [3]: 4 E/ml

CC1(C)S[C@@H]2[C@H](NC(=O)[C@H](NC(=O)N3CCC(=O)N(C4CC4)C3=O)c3ccc(O)cc3)C(=O)N2[C@H]1C(=O)O [Beispiel 10]
Wirksamkeit (MHK in E/ml) [10]: 16 E/ml | Wirksamkeit (MHK in E/ml) [11]: 64 E/ml

CN1C(=O)CCN(C(=O)N[C@@H](C(=O)N[C@@H]2C(=O)N3[C@@H]2SC(C)(C)[C@@H]3C(=O)O)c2ccccc2)C1=O [Beispiel 1]
Wirksamkeit (MHK in E/ml) [3]: 4 E/ml

CC(=O)OCC1=C(C(=O)O)N2C(=O)[C@@H](NC(=O)[C@H](NC(=O)N3CCC(=O)N(C)C3=O)c3ccccc3)[C@H]2SC1 [Beispiel 3]
Wirksamkeit (MHK in E/ml) [3]: 8-16 E/ml

CCCN1C(=O)CCN(C(=O)N[C@@H](C(=O)N[C@@H]2C(=O)N3[C@@H]2SC(C)(C)[C@@H]3C(=O)O)c2ccccc2)C1=O [Beispiel 6]
Wirksamkeit (MHK in E/ml) [12]: 4 E/ml | Wirksamkeit (MHK in E/ml) [4]: 16 E/ml

CN1C(=O)CCN(C(=O)N[C@@H](C(=O)N[C@@H]2C(=O)N3[C@@H]2SC(C)(C)[C@@H]3C(=O)O)c2ccc(O)cc2)C1=O [Beispiel 2]
Wirksamkeit (MHK in E/ml) [7]: 16 E/ml

CC(=O)OCC1=C(C(=O)O)N2C(=O)[C@@H](NC(=O)[C@H](NC(=O)N3CCC(=O)N(C4CC4)C3=O)c3ccccc3)[C@H]2SC1 [Beispiel 11]
Wirksamkeit (MHK in E/ml) [12]: 16 E/ml
